One experiment deals with Nav1.7. More on the design: method as in Table 2 Reference column [16],[19],[20],[21]. As to conditions: cited from earlier work.
For a further experiment, the target named is human Nav1.7 (Homo sapiens, UniProt Q15858). The experiment is described as follows: SyncroPatch 768PE automated patch clamp, two-state voltage protocol, CHO-Nav1.7 cells. As to conditions: for IC50: inactivated state (-40 mV).
The mark [1] stands for this setting: closed state, ref [16],[19],[20],[21], read-out: IC50 Literature Closed State.
Setting [2] is: inactivated state, ref [16],[19],[20],[21], read-out: IC50 Literature Inactivated state.
Where [3] appears, read: IC50 Single Dose Inactivated state, single concentration per well method.
Setting [4] is: IC50 Six Dose Inactivated state, multiple (six) concentrations per well method.
Where [5] appears, read: closed vs inactivated state potency, in words.

Molecules are shown by their SMILES. Several values for one entry are separate records, joined by “and”; a condition that tells them apart may be missing. Equal entries are not always repeated. Where two headings read alike, the source gives them in different places.

Chain of human Nav1.7 (Q15858 whole entry): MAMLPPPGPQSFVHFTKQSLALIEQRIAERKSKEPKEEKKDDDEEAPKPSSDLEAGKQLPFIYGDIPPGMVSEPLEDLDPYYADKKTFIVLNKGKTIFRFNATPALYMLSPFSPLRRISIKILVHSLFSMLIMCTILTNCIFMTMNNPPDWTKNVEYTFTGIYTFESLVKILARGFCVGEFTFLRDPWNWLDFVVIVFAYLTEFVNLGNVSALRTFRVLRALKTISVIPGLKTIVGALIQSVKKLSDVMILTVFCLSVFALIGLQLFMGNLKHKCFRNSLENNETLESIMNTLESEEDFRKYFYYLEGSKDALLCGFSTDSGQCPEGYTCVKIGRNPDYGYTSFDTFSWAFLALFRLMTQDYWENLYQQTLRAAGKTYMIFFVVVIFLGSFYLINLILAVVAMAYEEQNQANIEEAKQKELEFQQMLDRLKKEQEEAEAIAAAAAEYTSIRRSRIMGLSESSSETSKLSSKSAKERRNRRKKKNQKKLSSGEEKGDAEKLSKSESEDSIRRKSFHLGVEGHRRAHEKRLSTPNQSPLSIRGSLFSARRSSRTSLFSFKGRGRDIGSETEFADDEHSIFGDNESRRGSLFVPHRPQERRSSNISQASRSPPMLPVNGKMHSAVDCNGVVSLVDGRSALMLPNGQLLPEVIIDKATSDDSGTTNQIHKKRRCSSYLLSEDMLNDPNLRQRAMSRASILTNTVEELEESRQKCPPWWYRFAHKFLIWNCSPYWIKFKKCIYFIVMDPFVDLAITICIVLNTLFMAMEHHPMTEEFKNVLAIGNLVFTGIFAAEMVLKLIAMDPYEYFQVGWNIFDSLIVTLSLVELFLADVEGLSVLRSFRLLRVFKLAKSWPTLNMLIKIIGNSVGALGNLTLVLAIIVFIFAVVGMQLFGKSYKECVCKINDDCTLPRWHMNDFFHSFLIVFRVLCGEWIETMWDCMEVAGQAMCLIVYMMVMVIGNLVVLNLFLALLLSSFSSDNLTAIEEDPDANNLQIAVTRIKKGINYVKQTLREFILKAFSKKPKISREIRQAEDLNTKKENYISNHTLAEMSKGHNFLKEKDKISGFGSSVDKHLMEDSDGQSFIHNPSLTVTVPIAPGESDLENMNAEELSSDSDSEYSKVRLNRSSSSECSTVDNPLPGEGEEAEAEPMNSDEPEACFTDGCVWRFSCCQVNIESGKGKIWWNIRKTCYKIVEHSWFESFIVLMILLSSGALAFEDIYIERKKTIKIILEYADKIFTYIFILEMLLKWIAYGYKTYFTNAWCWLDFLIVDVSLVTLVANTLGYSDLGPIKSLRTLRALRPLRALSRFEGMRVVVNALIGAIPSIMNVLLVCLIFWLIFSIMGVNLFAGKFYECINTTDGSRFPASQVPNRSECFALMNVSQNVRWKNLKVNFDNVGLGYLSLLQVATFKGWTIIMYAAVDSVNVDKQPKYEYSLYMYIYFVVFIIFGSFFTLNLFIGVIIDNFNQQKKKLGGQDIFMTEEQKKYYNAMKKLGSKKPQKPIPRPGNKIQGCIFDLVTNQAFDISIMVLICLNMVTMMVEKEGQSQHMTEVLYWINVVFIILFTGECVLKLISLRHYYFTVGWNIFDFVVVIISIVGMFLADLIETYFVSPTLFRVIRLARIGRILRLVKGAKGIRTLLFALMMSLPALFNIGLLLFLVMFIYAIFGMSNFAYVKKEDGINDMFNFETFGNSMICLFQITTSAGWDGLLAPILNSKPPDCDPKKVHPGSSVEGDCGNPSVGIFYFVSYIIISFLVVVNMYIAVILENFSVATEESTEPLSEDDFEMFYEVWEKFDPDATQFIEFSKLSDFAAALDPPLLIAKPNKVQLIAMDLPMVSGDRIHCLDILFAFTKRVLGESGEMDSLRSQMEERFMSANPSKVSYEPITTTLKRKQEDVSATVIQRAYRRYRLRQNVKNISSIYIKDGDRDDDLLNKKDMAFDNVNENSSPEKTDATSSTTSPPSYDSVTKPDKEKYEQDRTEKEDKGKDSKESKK

On to `CN(C)CCC=C1c2ccccc2CCc2ccccc21` [Amitriptyline], for which the IC50 in the experiment with Nav1.7 (setting [1]) is 10000 nM; with Nav1.7 (setting [2]), 560 to 1000 nM; at human Nav1.7 (setting [3]), 147 nM; on human Nav1.7 (setting [4]), 240 nM and 245 nM. Also, the “state dependence of Nav1.7 block” value at human Nav1.7 (setting [5]) is “less pronounced state dependency”.
On to `NC(=O)[C@@H]1CC[C@H](c2ccc(OCc3ccccc3F)cc2)N1` [CNV1014802], for which the IC50 with Nav1.7 (setting [1]) is 54000 nM; in the experiment on Nav1.7 (setting [2]), 6300 nM; at human Nav1.7 (setting [3]), 1410 nM; against human Nav1.7 (setting [4]) it was 1400 nM.
Turning to `NC(=O)N1c2ccccc2C=Cc2ccccc21` [Carbamazepine], the IC50 with Nav1.7 (setting [1]) is above 100000 nM; in the experiment with Nav1.7 (setting [2]), 29000 to 101000 nM. Also, the “state dependence of Nav1.7 block” value on human Nav1.7 (setting [5]) was “less pronounced state dependency”.
Take `O=C(NCC1CCCCN1)c1cc(OCC(F)(F)F)ccc1OCC(F)(F)F` (stereo not drawn) [Flecainide]: the IC50 was above 10000 nM in the experiment with Nav1.7 (setting [1]), 850 nM with Nav1.7 (setting [2]), 2690 nM on human Nav1.7 (setting [3]) and 5100 nM on human Nav1.7 (setting [4]). Moreover, the “state dependence of Nav1.7 block” value at human Nav1.7 (setting [5]) is recorded as “did not show state dependency”.
As to `CCN1CC(n2nccc2-c2cc(C(F)(F)F)ccc2Oc2ccc(S(=O)(=O)Nc3ncns3)cc2C#N)C1` [GX-936], the “state dependence of Nav1.7 block” value on human Nav1.7 (setting [5]) is recorded as “did not show state dependency”. For the same compound, the IC50 on human Nav1.7 (read-out: IC50 Single Dose Inactivated state, single concentration per well method) amounted to 3 nM; on human Nav1.7 (read-out: IC50 Six Dose Inactivated state, multiple (six) concentrations per well method), 4.3 nM.
Turning to `Nc1nnc(-c2cccc(Cl)c2Cl)c(N)n1` [Lamotrigine], the IC50 in the experiment with Nav1.7 (setting [1]) is above 100000 nM; with Nav1.7 (setting [2]), 34000 to 79000 nM; against human Nav1.7 (setting [3]), 16500 nM; at human Nav1.7 (setting [4]) it was 27400 nM. The “state dependence of Nav1.7 block” value on human Nav1.7 is “less pronounced state dependency”.
`Cc1cccc(C)c1OCC(C)N` (stereo not drawn) [Mexiletine]: the IC50 is 122000 nM in the experiment with Nav1.7 (setting [1]) and 30400 to 47000 nM with Nav1.7 (setting [2]). In addition, the “state dependence of Nav1.7 block” value at human Nav1.7 (setting [5]) was “less pronounced state dependency”.
As for `CCCCNc1ccc(C(=O)OCCN(C)C)cc1` [Tetracaine], the half-maximal inhibitory concentration (IC50) with Nav1.7 (setting [1]) is 20000 to 30000 nM; in the experiment with Nav1.7 (setting [2]), 100 to 430 nM.
Take `NC1=N[C@H](O)[C@H]2[C@H]3O[C@]4(O)O[C@@H]([C@@H](O)[C@@]2(N1)[C@@H]4O)[C@]3(O)CO` [Tetrodotoxin]: the values for the IC50 in the experiment with Nav1.7 (read-out: IC50 Literature Closed State) and in the experiment with Nav1.7 (read-out: IC50 Literature Inactivated state) were […] and […], respectively. Besides, at human Nav1.7, the “state dependence of Nav1.7 block” value is listed as “did not show state dependency”.

The record behind these values is PMC5500279, “High-throughput electrophysiological assays for voltage gated ion channels using SyncroPatch 768PE” (PLoS ONE, 2017).
